Assay results from paper PMC9474474, “Determination of pharmacokinetics and tissue distribution of a novel lutetium-labeled PSMA-targeted ligand, ^177Lu-DOTA-PSMA-GUL, in rats by using LC–MS/MS” (Scientific Reports, 2022).

What was measured:
[1] = Excretion into urine and feces for 24 h after i.v. injection in rats; format: in vivo, Male Sprague–Dawley rats
Method: Freshly prepared ^175Lu-DOTA-PSMA-GUL solution (2.1 mg/mL) was administered by i.v. bolus injection via the penile vein (n = 5–7) at three doses of 1, 2, and 5 mg/kg. Approximately 0.3 mL of the jugular venous blood samples were collected at predetermined times after i.v. injection. Plasma samples were harvested by centrifugation of the blood samples at 3220 × g for 10 min. Urine and feces samples were collected at 4, 8, 12, and 24 h after i.v. injection. All samples were stored at -70 °C until analysis.
The plasma concentration–time data were analyzed by non-compartmental method using Phoenix® WinNonlin® (Pharsight, NC, USA). The fraction of ^175Lu-DOTA-PSMA-GUL excreted into urine (Furine) and feces (Ffeces) were calculated by the ratio of the total amount of drug excreted in the urine and feces to the fraction of the dose, respectively. The tissue-to-plasma partition coefficients (KP) were calculated as the tissue-to-plasma concentration ratios.

[2] = Stability in rat plasma, urine, feces and 12 tissues (LC–MS/MS validation); format: in vitro ADME; settings: for Stability Freeze-thaw: 4 cycles; for Stability Autosampler: 4 °C for 24 h; for Stability Long-term: -70 °C for two weeks; for Stability Short-term: room temperature for 4 h
Method: Analytical validation data including stability and process efficiency are shown in Supplementary Tables 3 and 4. […] The process efficiency in each biological matrix is generally consistent (Supplementary Table 4). […] For plasma samples, the dilution integrity was evaluated for a 10- and 20-fold dilution of QC samples at 40,000 ng/mL, which was two times higher than ULOQ, with blank matrix. The accuracy for dilution integrity was 105.56% and 102.21%, while precision was 1.03% and 2.39% for tenfold and 20-fold dilution, respectively (n = 3, each).
Supplementary Table 3. Stability (%) of 175Lu-DOTA-PSMA-GUL in the rat plasma, urine, feces,
Matrix Concentration Short-term Long-term Freeze-thaw Autosampler
(ng/mL) (n=4) (n=4) (n=4) (n=4)

[3] = rat small intestine, 4,000 ng/mL

## O=C([O-])CN1CCN(CC(=O)[O-])CCN(CC(=O)[O-])C(Cc2ccc(NC(=S)NCCCC[C@H](NC(=O)N[C@@H](CCC(=O)O)C(=O)O)C(=O)O)cc2)CN(CC(=O)[O-])CC1.[Lu+3] (stereo partly drawn) [^175Lu-DOTA-PSMA-GUL, Lutetium labeled-1,4,7,10-tetraazacyclododecane-1,4,7,10-tetraacetic acid (DOTA)-PSMA-GUL]
[1]; i.v. injection 1 mg/kg
  Ffeces (fraction excreted into feces): 5.46 ± 4.11%
  Furine (fraction excreted into urine): 58.71 ± 21.26%
[1]; i.v. injection 2 mg/kg
  Ffeces (fraction excreted into feces): 1.08 ± 0.76%
  Furine (fraction excreted into urine): 54.59 ± 25.98%
[1]; i.v. injection 5 mg/kg
  Ffeces (fraction excreted into feces): 6.41 ± 3.68%
  Furine (fraction excreted into urine): 59.89 ± 22.82%
[2]; rat brain, 400 ng/mL
  Stability Freeze-thaw: 96.03 ± 3.73%
  Stability Autosampler: 96.57 ± 0.76%
  Stability Long-term: 94.77 ± 3.27%
  Stability Short-term: 92.98 ± 2.86%
[2]; rat brain, 4,000 ng/mL
  Stability Freeze-thaw: 102.05 ± 3.19%
  Stability Autosampler: 90.60 ± 1.22%
  Stability Long-term: 95.22 ± 2.73%
  Stability Short-term: 98.51 ± 2.55%
[2]; rat fat, 400 ng/mL
  Stability Freeze-thaw: 91.54 ± 1.36%
  Stability Autosampler: 95.57 ± 4.47%
  Stability Long-term: 96.21 ± 4.47%
  Stability Short-term: 98.86 ± 3.38%
[2]; rat fat, 4,000 ng/mL
  Stability Freeze-thaw: 99.64 ± 2.85%
  Stability Autosampler: 95.05 ± 0.70%
  Stability Long-term: 94.41 ± 3.10%
  Stability Short-term: 96.74 ± 3.52%
[2]; rat feces, 400 ng/mL
  Stability Freeze-thaw: 104.54 ± 6.86%
  Stability Autosampler: 97.85 ± 3.82%
  Stability Long-term: 103.52 ± 1.25%
  Stability Short-term: 90.69 ± 6.38%
[2]; rat feces, 4,000 ng/mL
  Stability Freeze-thaw: 105.65 ± 2.20%
  Stability Autosampler: 104.03 ± 2.53%
  Stability Long-term: 101.50 ± 1.39%
  Stability Short-term: 104.76 ± 2.40%
[2]; rat heart, 400 ng/mL
  Stability Autosampler: 98.75 ± 4.29%
  Stability Long-term: 93.97 ± 1.45%
  Stability Short-term: 95.08 ± 10.83%
[2]; rat heart, 4,000 ng/mL
  Stability Freeze-thaw: 97.19 ± 8.21%
  Stability Autosampler: 92.56 ± 3.26%
  Stability Long-term: 93.50 ± 2.78%
  Stability Short-term: 91.74 ± 0.93%
[2]; rat kidney, 400 ng/mL
  Stability Freeze-thaw: 94.83 ± 2.49%
  Stability Autosampler: 95.72 ± 4.19%
  Stability Long-term: 95.92 ± 2.97%
  Stability Short-term: 95.45 ± 3.51%
[2]; rat kidney, 4,000 ng/mL
  Stability Freeze-thaw: 94.30 ± 1.02%
  Stability Autosampler: 97.98 ± 2.82%
  Stability Long-term: 94.61 ± 2.50%
  Stability Short-term: 98.14 ± 3.63%
[2]; rat liver, 400 ng/mL
  Stability Freeze-thaw: 95.93 ± 3.91%
  Stability Autosampler: 97.39 ± 3.47%
  Stability Long-term: 97.86 ± 1.87%
  Stability Short-term: 98.94 ± 5.66%
[2]; rat liver, 4,000 ng/mL
  Stability Freeze-thaw: 91.72 ± 2.23%
  Stability Autosampler: 92.47 ± 2.32%
  Stability Long-term: 91.83 ± 1.56%
  Stability Short-term: 91.39 ± 2.47%
[2]; rat lung, 400 ng/mL
  Stability Freeze-thaw: 96.40 ± 1.10%
  Stability Autosampler: 98.84 ± 7.51%
  Stability Long-term: 99.08 ± 2.59%
  Stability Short-term: 98.55 ± 4.32%
[2]; rat lung, 4,000 ng/mL
  Stability Freeze-thaw: 97.55 ± 0.70%
  Stability Autosampler: 102.00 ± 4.06%
  Stability Long-term: 95.79 ± 1.75%
  Stability Short-term: 96.87 ± 1.97%
[2]; rat muscle, 400 ng/mL
  Stability Freeze-thaw: 101.47 ± 2.25%
  Stability Autosampler: 94.93 ± 2.73%
  Stability Long-term: 99.56 ± 2.47%
  Stability Short-term: 100.99 ± 2.76%
[2]; rat muscle, 4,000 ng/mL
  Stability Freeze-thaw: 94.67 ± 0.44%
  Stability Autosampler: 98.62 ± 2.06%
  Stability Long-term: 99.74 ± 4.41%
  Stability Short-term: 99.13 ± 2.50%
[2]; rat plasma, 80 ng/mL
  Stability Freeze-thaw: 102.92 ± 2.77%
  Stability Autosampler: 97.69 ± 3.09%
  Stability Long-term: 100.61 ± 2.11%
  Stability Short-term: 106.18 ± 0.41%
[2]; rat plasma, 16,000 ng/mL
  Stability Freeze-thaw: 98.68 ± 1.21%
  Stability Autosampler: 102.82 ± 1.73%
  Stability Long-term: 99.20 ± 0.51%
  Stability Short-term: 101.14 ± 2.43%
[2]; rat prostate, 400 ng/mL
  Stability Freeze-thaw: 95.17 ± 3.44%
  Stability Autosampler: 97.82 ± 2.46%
  Stability Long-term: 95.50 ± 3.57%
  Stability Short-term: 95.76 ± 1.48%
[2]; rat prostate, 4,000 ng/mL
  Stability Freeze-thaw: 99.85 ± 2.74%
  Stability Autosampler: 96.30 ± 0.83%
  Stability Long-term: 97.12 ± 3.90%
  Stability Short-term: 99.30 ± 3.24%
[2]; rat small intestine, 400 ng/mL
  Stability Freeze-thaw: 99.15 ± 6.00%
  Stability Autosampler: 98.68 ± 2.52%
  Stability Long-term: 98.80 ± 2.76%
  Stability Short-term: 99.17 ± 2.35%
[2]; [3]
  Stability Freeze-thaw: 100.54 ± 2.33%
  Stability Autosampler: 104.13 ± 2.24%
  Stability Long-term: 103.65 ± 4.10%
  Stability Short-term: 102.12 ± 2.51%
[2]; rat spleen, 400 ng/mL
  Stability Freeze-thaw: 98.46 ± 3.74%
  Stability Autosampler: 102.59 ± 1.80%
  Stability Long-term: 97.10 ± 3.45%
  Stability Short-term: 101.61 ± 2.41%
[2]; rat spleen, 4,000 ng/mL
  Stability Freeze-thaw: 104.53 ± 2.39%
  Stability Autosampler: 102.93 ± 2.02%
  Stability Long-term: 106.40 ± 3.85%
  Stability Short-term: 104.24 ± 4.36%
[2]; rat stomach, 400 ng/mL
  Stability Freeze-thaw: 97.59 ± 1.68%
  Stability Autosampler: 100.00 ± 4.55%
  Stability Long-term: 99.72 ± 2.41%
  Stability Short-term: 98.96 ± 4.28%
[2]; rat stomach, 4,000 ng/mL
  Stability Freeze-thaw: 92.47 ± 1.38%
  Stability Autosampler: 93.61 ± 2.79%
  Stability Long-term: 94.79 ± 3.41%
  Stability Short-term: 96.98 ± 3.91%
[2]; rat testis, 400 ng/mL
  Stability Freeze-thaw: 107.18 ± 0.85%
  Stability Autosampler: 101.68 ± 6.54%
  Stability Long-term: 103.74 ± 3.80%
  Stability Short-term: 100.51 ± 3.98%
[2]; rat testis, 4,000 ng/mL
  Stability Freeze-thaw: 99.52 ± 0.96%
  Stability Autosampler: 97.56 ± 4.96%
  Stability Long-term: 94.96 ± 4.89%
  Stability Short-term: 101.72 ± 1.48%
[2]; rat urine, 400 ng/mL
  Stability Freeze-thaw: 105.67 ± 4.65%
  Stability Autosampler: 94.03 ± 2.84%
  Stability Long-term: 98.36 ± 1.67%
  Stability Short-term: 91.67 ± 2.58%
[2]; rat urine, 16,000 ng/mL
  Stability Freeze-thaw: 92.41 ± 1.12%
  Stability Autosampler: 104.69 ± 2.03%
  Stability Long-term: 100.28 ± 1.39%
  Stability Short-term: 106.46 ± 1.17%
[2]; short-term, long-term, freeze–thaw and autosampler storage conditions
  stability in each biological matrix: stable
